According to ChEMBL document CHEMBL1201862, “PubChem BioAssay data set” (2004):
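Cells were grown in 96-well plates and exposed to each compound for 48 hours at five concentrations; endpoints were interpolated linearly between bracketing concentrations, or set to the highest concentration if not reached. GI50 marks 50% less growth.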 The source made the active and inactive calls. No stated cut-off is given here; in the data, active = GI50 up to about 1.1 µM and inactive = higher.

Columns and labels:
Assay in all cases: NCI anticancer screen, dose series, 48 h
A549 = system: A549
NCI/ADR-RES = system: NCI/ADR-RES
786-0 = system: 786-0
U-251 = system: U-251
IGROV-1 = system: IGROV-1
ACHN = system: ACHN
HCT-116 = system: HCT-116
SK-MEL-2 = system: SK-MEL-2
CAKI-1 = system: CAKI-1
MOLT-4 = system: MOLT-4
T47D = system: T47D
EKVX = system: EKVX
OVCAR-8 = system: OVCAR-8
HCC 2998 = system: HCC 2998
SN12C = system: SN12C
MDA-MB-435 = system: MDA-MB-435
LOX IMVI = system: LOX IMVI
SW-620 = system: SW-620
SF-539 = system: SF-539
OVCAR-4 = system: OVCAR-4

SMILES	GI50 (A549)	GI50 (NCI/ADR-RES)	GI50 (786-0)	GI50 (U-251)	GI50 (IGROV-1)	GI50 (ACHN)	GI50 (HCT-116)	GI50 (SK-MEL-2)	GI50 (CAKI-1)	GI50 (MOLT-4)	GI50 (T47D)	GI50 (EKVX)	GI50 (OVCAR-8)	GI50 (HCC 2998)	GI50 (SN12C)	GI50 (MDA-MB-435)	GI50 (LOX IMVI)	GI50 (SW-620)	GI50 (SF-539)	GI50 (OVCAR-4)
Cc1nc2c(sc(=S)n2-c2ccccc2)c2nc3ncccc3n12	> 100 µM (inactive)	> 100 µM (inactive)	35.2 µM (inactive)	32.6 µM (inactive)	> 100 µM (inactive)	> 100 µM (inactive)	> 100 µM (inactive)	65.8 µM (inactive)	> 100 µM (inactive)	> 100 µM (inactive)	> 100 µM (inactive)	> 100 µM (inactive)	> 100 µM (inactive)	> 100 µM (inactive)	46.2 µM (inactive)	> 100 µM (inactive)	> 100 µM (inactive)	> 100 µM (inactive)		
CCn1c2ccccc2c2nnc(NCCCO)nc21	> 100 µM (inactive)	> 100 µM (inactive)	> 100 µM (inactive)	> 100 µM (inactive)	> 100 µM (inactive)	> 100 µM (inactive)	> 100 µM (inactive)	> 100 µM (inactive)	> 100 µM (inactive)	58.2 µM (inactive)	82 µM (inactive)	28 µM (inactive)	> 100 µM (inactive)		> 100 µM (inactive)	> 100 µM (inactive)	> 100 µM (inactive)	> 100 µM (inactive)	> 100 µM (inactive)	> 100 µM (inactive)
COC(=O)CCC1(C)C2CCC1(C)/C(=N/O)C2 (stereo not drawn)	> 100 µM (inactive)	> 100 µM (inactive)	> 100 µM (inactive)	> 100 µM (inactive)	> 100 µM (inactive)	> 100 µM (inactive)	> 100 µM (inactive)	> 100 µM (inactive)	> 100 µM (inactive)	> 100 µM (inactive)	> 100 µM (inactive)	> 100 µM (inactive)	> 100 µM (inactive)	> 100 µM (inactive)	> 100 µM (inactive)	> 100 µM (inactive)		> 100 µM (inactive)		> 100 µM (inactive)
COc1cc(C2S/C(=C/c3ccccc3)C(=O)N2c2ccc(Cl)c(Cl)c2)cc(OC)c1OC (stereo not drawn)	53.8 µM (inactive)	32.6 µM (inactive)	70.6 µM (inactive)	38.7 µM (inactive)	22.5 µM (inactive)	18.7 µM (inactive)	19.3 µM (inactive)	12.6 µM (inactive)	> 70.8 µM (inactive)	28.8 µM (inactive)	> 100 µM (inactive)	23.1 µM (inactive)	> 72.3 µM (inactive)	58.9 µM (inactive)	> 61.4 µM (inactive)	7.29 µM (inactive)	19.2 µM (inactive)	31 µM (inactive)		60.8 µM (inactive)
COc1cc(N(CCC#N)CCC#N)ccc1/C=N\NC(=O)c1ccc(C)cc1	> 100 µM (inactive)	> 100 µM (inactive)	> 100 µM (inactive)	16.4 µM (inactive)	> 100 µM (inactive)	> 100 µM (inactive)	> 100 µM (inactive)	17.3 µM (inactive)	> 100 µM (inactive)	> 100 µM (inactive)	> 100 µM (inactive)	> 100 µM (inactive)	> 100 µM (inactive)		> 100 µM (inactive)	> 100 µM (inactive)	> 100 µM (inactive)	> 100 µM (inactive)	> 100 µM (inactive)	> 100 µM (inactive)
CCOC(=O)CC1C(C(=O)OCC)=Cn2c([nH]c3cccc4cccc2c43)=C1C(=O)OCC (stereo not drawn)	> 100 µM (inactive)	> 100 µM (inactive)	> 100 µM (inactive)	> 100 µM (inactive)	> 100 µM (inactive)	> 100 µM (inactive)	> 100 µM (inactive)	> 100 µM (inactive)	> 100 µM (inactive)	> 100 µM (inactive)	43.8 µM (inactive)	> 100 µM (inactive)	> 100 µM (inactive)	> 100 µM (inactive)	> 100 µM (inactive)	54.3 µM (inactive)	> 100 µM (inactive)	> 100 µM (inactive)		> 100 µM (inactive)
COc1cc(C2c3cc4c(cc3[C@@H](Nc3ccccc3)C3CO[C@@H](OC)[C@H]23)OCO4)cc(OC)c1O (stereo partly drawn)	2.13 µM (inactive)	14.6 µM (inactive)	5.14 µM (inactive)	5.55 µM (inactive)	20.9 µM (inactive)	3.18 µM (inactive)	7.38 µM (inactive)			0.984 µM (active)	8.36 µM (inactive)	20.7 µM (inactive)	7.03 µM (inactive)	6.9 µM (inactive)	7.36 µM (inactive)	9.79 µM (inactive)		6.52 µM (inactive)	5.41 µM (inactive)	> 25 µM (inactive)
C=CCN1C(=O)C[C@H](Cc2ccccc2)NC(=O)C[C@H](Cc2ccccc2)N(CC=C)C(=O)C[C@H](Cc2ccccc2)NC(=O)C[C@@H]1Cc1ccccc1	4.83 µM (inactive)	4.37 µM (inactive)	47.8 µM (inactive)	12.9 µM (inactive)	20 µM (inactive)		14.8 µM (inactive)	6.73 µM (inactive)	5.15 µM (inactive)	2.69 µM (inactive)	6.3 µM (inactive)	0.942 µM (active)	39.4 µM (inactive)		5.7 µM (inactive)	5.93 µM (inactive)	3.99 µM (inactive)	62.7 µM (inactive)	46.1 µM (inactive)	4.6 µM (inactive)
N#CCCN(C(=O)Nc1ccc(NC(=O)N(CCC#N)c2ccccc2)cc1)c1ccccc1	> 100 µM (inactive)	> 100 µM (inactive)	> 100 µM (inactive)	> 100 µM (inactive)	> 100 µM (inactive)	> 100 µM (inactive)	> 100 µM (inactive)	> 100 µM (inactive)	> 100 µM (inactive)	> 100 µM (inactive)	> 100 µM (inactive)	> 100 µM (inactive)	> 100 µM (inactive)	> 100 µM (inactive)	> 100 µM (inactive)	> 100 µM (inactive)	> 100 µM (inactive)	> 100 µM (inactive)		> 100 µM (inactive)
C1CN2CCNCCN(CCN1)CC2	> 100 µM (inactive)	> 100 µM (inactive)	> 100 µM (inactive)	> 100 µM (inactive)	> 100 µM (inactive)	> 100 µM (inactive)	> 100 µM (inactive)	> 100 µM (inactive)	> 100 µM (inactive)	> 100 µM (inactive)	> 100 µM (inactive)	> 100 µM (inactive)	> 100 µM (inactive)		> 100 µM (inactive)	> 100 µM (inactive)	> 100 µM (inactive)	> 100 µM (inactive)	> 100 µM (inactive)	> 100 µM (inactive)
NC(=S)N/N=C1\CCCCc2ccccc21	> 10 µM (inactive)	> 10 µM (inactive)	> 10 µM (inactive)	> 10 µM (inactive)		> 10 µM (inactive)	> 10 µM (inactive)	> 10 µM (inactive)	> 10 µM (inactive)	> 10 µM (inactive)	4.81 µM (inactive)	> 10 µM (inactive)	> 10 µM (inactive)	> 10 µM (inactive)	> 10 µM (inactive)	> 10 µM (inactive)		> 10 µM (inactive)		> 10 µM (inactive)
Cc1ccc([N+](=O)[O-])cc1S(=O)(=O)Nc1ccc(C2=NN(S(=O)(=O)c3cc([N+](=O)[O-])ccc3C)C(c3ccccc3)C2)cc1 (stereo not drawn)	29.4 µM (inactive)	25.5 µM (inactive)	39.5 µM (inactive)	29.8 µM (inactive)	29.3 µM (inactive)	31.8 µM (inactive)	18.5 µM (inactive)	22.6 µM (inactive)	35.8 µM (inactive)	30 µM (inactive)	41.4 µM (inactive)	28.8 µM (inactive)	42.2 µM (inactive)	22.2 µM (inactive)	28.2 µM (inactive)	36.8 µM (inactive)	34.3 µM (inactive)	50.5 µM (inactive)		33.9 µM (inactive)
CCOC(=O)Cc1ccc(Nc2nc3ccccc3nc2C(=O)OCC)cc1	35.2 µM (inactive)	50.7 µM (inactive)	34 µM (inactive)	51.3 µM (inactive)	57.5 µM (inactive)	53.5 µM (inactive)	> 100 µM (inactive)	94 µM (inactive)	83.6 µM (inactive)	> 100 µM (inactive)	36.6 µM (inactive)	38.4 µM (inactive)	56.1 µM (inactive)		> 100 µM (inactive)	> 100 µM (inactive)	> 100 µM (inactive)	> 100 µM (inactive)	37.1 µM (inactive)	77.1 µM (inactive)
Nc1ccc(/N=N/c2c(S(=O)(=O)O)cc3ccccc3c2S(=O)(=O)O)cc1	> 100 µM (inactive)	> 100 µM (inactive)	> 100 µM (inactive)	> 100 µM (inactive)	> 100 µM (inactive)	> 100 µM (inactive)	> 100 µM (inactive)	> 100 µM (inactive)	> 100 µM (inactive)	> 100 µM (inactive)	> 100 µM (inactive)	> 100 µM (inactive)	> 100 µM (inactive)	> 100 µM (inactive)	> 100 µM (inactive)	> 100 µM (inactive)	> 100 µM (inactive)	> 100 µM (inactive)		> 100 µM (inactive)
Cc1nn2c(N)cc(=O)nc2nc1/C=C/c1ccc(N(C)C)cc1	16.9 µM (inactive)	> 100 µM (inactive)	> 28.8 µM (inactive)	> 22.1 µM (inactive)	16.6 µM (inactive)	18 µM (inactive)	12 µM (inactive)	> 49.2 µM (inactive)	3.45 µM (inactive)	> 52 µM (inactive)	> 100 µM (inactive)	7.23 µM (inactive)	> 25.2 µM (inactive)	3.18 µM (inactive)	> 65.6 µM (inactive)	7.93 µM (inactive)	4.11 µM (inactive)	> 100 µM (inactive)		> 26.5 µM (inactive)
